Measurements published in the supplement of paper PMC10307832.

Legend:
Test in all cases: relative viability (nuclei count vs DMSO), 5 days (fraction); higher = more cells survive
ChaGo-K-1 = tested on: ChaGo-K-1
Outline: (§1)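 Relative viability is defined as nuclei in treated wells over nuclei in vehicle wells. Duplicate plates were run and medians reported. Lung cancer cell lines in 1536-well plates were dosed by pin tool one day after seeding, with one drug or with a fixed anchor-drug dose plus five library-drug doses (not always all listed) in √10 steps, and nuclei were counted after 5 days.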

EMC-BAC-2 = tested on: EMC-BAC-2
Outline: as §1

EPLC-272H = tested on: EPLC-272H
Outline: as §1

HCC-78 = tested on: HCC-78
Outline: as §1

HCC-827 = tested on: HCC-827
Outline: as §1

LCLC-103H = tested on: LCLC-103H
Outline: as §1

LK-2 = tested on: LK-2
Outline: as §1

LOU-NH91 = tested on: LOU-NH91
Outline: as §1

LU99A = tested on: LU99A
Outline: as §1

LXF-289 = tested on: LXF-289
Outline: as §1

NCI-H1666 = tested on: NCI-H1666
Outline: as §1

NCI-H1975 = tested on: NCI-H1975
Outline: as §1

NCI-H2085 = tested on: NCI-H2085
Outline: as §1

NCI-H2126 = tested on: NCI-H2126
Outline: as §1

NCI-H23 = tested on: NCI-H23
Outline: as §1

NCI-H2405 = tested on: NCI-H2405
Outline: as §1

NCI-H3122 = tested on: NCI-H3122
Outline: as §1

NCI-H322M = tested on: NCI-H322M
Outline: as §1

RERF-LC-KJ = tested on: RERF-LC-KJ
Outline: as §1

SK-LU-1 = tested on: SK-LU-1
Outline: as §1

SW 1573 = tested on: SW 1573
Outline: as §1

SW 900 = tested on: SW 900
Outline: as §1

Structure (SMILES): NC(=O)Nc1cc(-c2cccc(F)c2)sc1C(=O)N[C@H]1CCCNC1 [AZD7762] + Cc1cc(Nc2cc(N3CCN(C)CC3)nc(Sc3ccc(NC(=O)C4CC4)cc3)n2)n[nH]1 [Tozasertib] (partner 0.1 µM)
- relative viability (ChaGo-K-1; first compound 0.01 µM): 0.215
- relative viability (ChaGo-K-1; first compound 0.03162 µM): 0.224
- relative viability (ChaGo-K-1; first compound 0.1 µM): 0.239
- relative viability (ChaGo-K-1; first compound 0.3162 µM): 0.197
- relative viability (ChaGo-K-1; first compound 1 µM): 0.227
- relative viability (EMC-BAC-2; first compound 0.01 µM): 0.295
- relative viability (EMC-BAC-2; first compound 0.03162 µM): 0.302
- relative viability (EMC-BAC-2; first compound 0.1 µM): 0.326
- relative viability (EMC-BAC-2; first compound 0.3162 µM): 0.321
- relative viability (EMC-BAC-2; first compound 1 µM): 0.282
- relative viability (EPLC-272H; first compound 0.01 µM): 0.274
- relative viability (EPLC-272H; first compound 0.03162 µM): 0.242
- relative viability (EPLC-272H; first compound 0.1 µM): 0.248
- relative viability (EPLC-272H; first compound 0.3162 µM): 0.28
- relative viability (EPLC-272H; first compound 1 µM): 0.0908
- relative viability (HCC-78; first compound 0.01 µM): 0.539
- relative viability (HCC-78; first compound 0.03162 µM): 0.437
- relative viability (HCC-78; first compound 0.1 µM): 0.515
- relative viability (HCC-78; first compound 0.3162 µM): 0.44
- relative viability (HCC-78; first compound 1 µM): 0.404
- relative viability (HCC-827; first compound 0.01 µM): 0.41
- relative viability (HCC-827; first compound 0.03162 µM): 0.449
- relative viability (HCC-827; first compound 0.1 µM): 0.409
- relative viability (HCC-827; first compound 0.3162 µM): 0.394
- relative viability (HCC-827; first compound 1 µM): 0.372
- relative viability (LCLC-103H; first compound 0.01 µM): 0.522
- relative viability (LCLC-103H; first compound 0.03162 µM): 0.442
- relative viability (LCLC-103H; first compound 0.1 µM): 0.524
- relative viability (LCLC-103H; first compound 0.3162 µM): 0.516
- relative viability (LCLC-103H; first compound 1 µM): 0.323
- relative viability (LK-2; first compound 0.01 µM): 0.194
- relative viability (LK-2; first compound 0.03162 µM): 0.186
- relative viability (LK-2; first compound 0.1 µM): 0.195
- relative viability (LK-2; first compound 0.3162 µM): 0.156
- relative viability (LK-2; first compound 1 µM): 0.165
- relative viability (LOU-NH91; first compound 0.01 µM): 0.741
- relative viability (LOU-NH91; first compound 0.03162 µM): 0.701
- relative viability (LOU-NH91; first compound 0.1 µM): 0.665
- relative viability (LOU-NH91; first compound 0.3162 µM): 0.623
- relative viability (LOU-NH91; first compound 1 µM): 0.429
- relative viability (LU99A; first compound 0.01 µM): 0.318
- relative viability (LU99A; first compound 0.03162 µM): 0.279
- relative viability (LU99A; first compound 0.1 µM): 0.341
- relative viability (LU99A; first compound 0.3162 µM): 0.281
- relative viability (LU99A; first compound 1 µM): 0.218
- relative viability (LXF-289; first compound 0.01 µM): 0.215
- relative viability (LXF-289; first compound 0.03162 µM): 0.203
- relative viability (LXF-289; first compound 0.1 µM): 0.196
- relative viability (LXF-289; first compound 0.3162 µM): 0.174
- relative viability (LXF-289; first compound 1 µM): 0.188
- relative viability (NCI-H1666; first compound 0.01 µM): 0.703
- relative viability (NCI-H1666; first compound 0.03162 µM): 0.748
- relative viability (NCI-H1666; first compound 0.1 µM): 0.68
- relative viability (NCI-H1666; first compound 0.3162 µM): 0.724
- relative viability (NCI-H1666; first compound 1 µM): 0.47
- relative viability (NCI-H1975; first compound 0.01 µM): 0.762
- relative viability (NCI-H1975; first compound 0.03162 µM): 0.721
- relative viability (NCI-H1975; first compound 0.1 µM): 0.589
- relative viability (NCI-H1975; first compound 0.3162 µM): 0.469
- relative viability (NCI-H1975; first compound 1 µM): 0.367
- relative viability (NCI-H2085; first compound 0.01 µM): 0.875
- relative viability (NCI-H2085; first compound 0.03162 µM): 0.769
- relative viability (NCI-H2085; first compound 0.1 µM): 0.807
- relative viability (NCI-H2085; first compound 0.3162 µM): 0.729
- relative viability (NCI-H2085; first compound 1 µM): 0.713
- relative viability (NCI-H2126; first compound 0.01 µM): 0.889
- relative viability (NCI-H2126; first compound 0.03162 µM): 0.888
- relative viability (NCI-H2126; first compound 0.1 µM): 0.937
- relative viability (NCI-H2126; first compound 0.3162 µM): 0.831
- relative viability (NCI-H2126; first compound 1 µM): 0.454
- relative viability (NCI-H23; first compound 0.01 µM): 0.41
- relative viability (NCI-H23; first compound 0.03162 µM): 0.711
- relative viability (NCI-H23; first compound 0.1 µM): 0.558
- relative viability (NCI-H23; first compound 0.3162 µM): 0.33
- relative viability (NCI-H23; first compound 1 µM): 0.209
- relative viability (NCI-H2405; first compound 0.01 µM): 0.793
- relative viability (NCI-H2405; first compound 0.03162 µM): 0.832
- relative viability (NCI-H2405; first compound 0.1 µM): 0.783
- relative viability (NCI-H2405; first compound 0.3162 µM): 0.748
- relative viability (NCI-H2405; first compound 1 µM): 0.424
- relative viability (NCI-H3122; first compound 0.01 µM): 0.475
- relative viability (NCI-H3122; first compound 0.03162 µM): 0.412
- relative viability (NCI-H3122; first compound 0.1 µM): 0.402
- relative viability (NCI-H3122; first compound 0.3162 µM): 0.278
- relative viability (NCI-H3122; first compound 1 µM): 0.156
- relative viability (NCI-H322M; first compound 0.01 µM): 0.47
- relative viability (NCI-H322M; first compound 0.03162 µM): 0.515
- relative viability (NCI-H322M; first compound 0.1 µM): 0.514
- relative viability (NCI-H322M; first compound 0.3162 µM): 0.307
- relative viability (NCI-H322M; first compound 1 µM): 0.305
- relative viability (RERF-LC-KJ; first compound 0.01 µM): 0.637
- relative viability (RERF-LC-KJ; first compound 0.03162 µM): 0.509
- relative viability (RERF-LC-KJ; first compound 0.1 µM): 0.422
- relative viability (RERF-LC-KJ; first compound 0.3162 µM): 0.453
- relative viability (RERF-LC-KJ; first compound 1 µM): 0.249
- relative viability (SK-LU-1; first compound 0.01 µM): 0.374
- relative viability (SK-LU-1; first compound 0.03162 µM): 0.246
- relative viability (SK-LU-1; first compound 0.1 µM): 0.17
- relative viability (SK-LU-1; first compound 0.3162 µM): 0.128
- relative viability (SK-LU-1; first compound 1 µM): 0.142
- relative viability (SW 1573; first compound 0.01 µM): 0.225
- relative viability (SW 1573; first compound 0.03162 µM): 0.186
- relative viability (SW 1573; first compound 0.1 µM): 0.153
- relative viability (SW 1573; first compound 0.3162 µM): 0.15
- relative viability (SW 1573; first compound 1 µM): 0.117
- relative viability (SW 900; first compound 0.01 µM): 0.713
- relative viability (SW 900; first compound 0.03162 µM): 0.536
- relative viability (SW 900; first compound 0.1 µM): 0.743
- relative viability (SW 900; first compound 0.3162 µM): 0.663
- relative viability (SW 900; first compound 1 µM): 0.403
